Laboratory results: patent US20260049105A1, “SELECTIVE MC4R LIGAND FOR TREATING OBESITY AND COGNITIVE LOSS” (ARIZONA BOARD OF REGENTS ON BEHALF OF THE UNIVERSITY OF …, priority 2022, published 2026)

Columns and labels:
[1] = target: T1, hMC5R (Homo sapiens, UniProt P33032); test: Competitive receptor binding assay, whole HEK293 cells, 125I-NDP-α-MSH; details: 40 min; hM5CR; percentage of NDP-α-MSH displacement at 10 μM; read-out: BE %
T1 construct: expressed in transfected cells; host or cells: HEK293
T1 sequence (P33032 whole entry): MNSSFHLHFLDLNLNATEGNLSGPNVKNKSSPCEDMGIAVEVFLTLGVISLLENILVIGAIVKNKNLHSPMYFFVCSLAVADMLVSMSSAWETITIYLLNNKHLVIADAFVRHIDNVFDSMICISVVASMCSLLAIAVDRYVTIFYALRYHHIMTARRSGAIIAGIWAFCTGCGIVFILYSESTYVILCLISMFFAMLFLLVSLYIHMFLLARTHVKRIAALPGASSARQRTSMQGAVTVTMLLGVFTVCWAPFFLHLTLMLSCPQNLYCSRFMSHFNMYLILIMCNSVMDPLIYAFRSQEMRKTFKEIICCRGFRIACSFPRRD
Procedure: [The procedure below names another target; the source lists this target under the same test.] (§1) Competition binding experiments were performed on whole cells. The transfected HEK293 cell line with hMC4Rs were seeded on 96 well plates, 48 hours before the assay, 100,000 cells/well. For the assay, the medium was removed and cells were washed twice with a freshly prepared binding buffer containing 100% minimum essential medium with Earle's salt (MEM, GIBCO), 25 mM HEPES (pH 7.4), 0.2% bovine serum albumin, 1 mM 1,10-phenanthroline, 0.5 mg/L leupeptin, and 200 mg/L bacitracin. […] The medium was subsequently removed and each well was washed twice with the assay buffer. The cells are lysed by the addition of 250 μL of 0.1 NaOH and 250 μL of 1% Triton X-100. […] Data were analyzed using Graphpad Prism 6.0 (Graphpad Software, San Diego, CA).
(§2) IC50 and EC50 values represent the mean of duplicate experiments performed in triplicate. IC50 and EC50 estimates and their associated standard errors were determined by fitting the data using nonlinear least-squares analysis, with the help of Graphpad Prism 6.0 (Graphpad Software, San Diego, CA).
(§3) NA indicates 0% cAMP accumulation observed at 10 μM. The peptides were tested over a range of concentrations from 10^-10 to 10^-5 M.

[2] = target: T1, hMC5R; test: Adenylate cyclase (cAMP) assay in transfected HEK293 cells; format: cell-based; details: hM5CR; for Emax at 10 µM: HEK293, 0.05 h, cAMP at 10 μM in relation to MT-II, read-out: Act %
Procedure: (§4) HEK293 cells transfected with human melanocortin receptors were grown to confluence in MEM medium (GIBCO) containing 10% fetal bovine serum, 100 units/mL penicillin and streptomycin, and 1 mM sodium pyruvate. The cells were seeded on 96 well plates 48 hours before the assay, (100,000 cells/well). For the assay, the medium was removed and cells were rinsed with 1 mL of MEM buffer (GIBCO) or with Earle's balanced salt solution (EBSS, GIBCO). An aliquot (0.4 mL) of Earle's balanced salt solution was placed in each well along with isobutylmethylxanthine (IBMX; 5 μL; 0.5 mM) for 1 minute at 37° C. Varying concentrations of melanotropins (0.1 mL) were added and the cells incubated for 3 minutes at 37° C. The reaction was stopped by aspirating the buffer and adding ice-cold Tris/EDTA buffer to each well (0.15 mL). The 96 well plates were covered and placed on ice. After dislodging the cells, the plates were placed in a boiling water bath for 15 minutes. The cell lysate was then centrifuged for 10 minutes (4000 rpm), and 50 μL of the supernatant was aliquoted into perkinElmer glass fiber filter plate. cAMP content was measured by competitive binding assay in addition to 50 μL H^3 cAMP and 100 μL PKA. Then the system was placed on ice for 2 hours and then vacuum and filtered. 100 μL of the OptiPhase Supermix scintillation fluid was added to the plate. The plates stayed for 8 hours and then read by MicroBeta radiation plate reader.
as §2, §3

[3] = target: T2, hMC1R (Homo sapiens, UniProt Q01726); test: as above; format: cell-based; details: HEK293, 0.05 h; hM1CR; cAMP at 10 μM in relation to MT-II; read-out: Act %
T2 construct: expressed in transfected cells; host or cells: HEK293
T2 sequence (Q01726 whole entry): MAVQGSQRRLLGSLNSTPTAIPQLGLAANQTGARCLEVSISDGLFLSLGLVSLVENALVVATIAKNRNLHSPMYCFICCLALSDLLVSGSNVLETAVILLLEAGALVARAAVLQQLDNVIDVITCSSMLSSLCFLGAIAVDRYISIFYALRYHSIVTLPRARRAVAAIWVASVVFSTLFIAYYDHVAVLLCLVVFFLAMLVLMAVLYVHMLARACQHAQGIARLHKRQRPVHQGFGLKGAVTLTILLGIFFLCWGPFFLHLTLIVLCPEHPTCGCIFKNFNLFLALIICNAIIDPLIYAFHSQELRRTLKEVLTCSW
Procedure: as §4, §2, §3

[4] = target: T3, hMC3R (Homo sapiens, UniProt P41968); test: as above; format: cell-based; details: hM3CR; for Emax at 10 µM: HEK293, 0.05 h, cAMP at 10 μM in relation to MT-II, read-out: Act %
T3 construct: expressed in transfected cells; host or cells: HEK293
T3 sequence (P41968 whole entry): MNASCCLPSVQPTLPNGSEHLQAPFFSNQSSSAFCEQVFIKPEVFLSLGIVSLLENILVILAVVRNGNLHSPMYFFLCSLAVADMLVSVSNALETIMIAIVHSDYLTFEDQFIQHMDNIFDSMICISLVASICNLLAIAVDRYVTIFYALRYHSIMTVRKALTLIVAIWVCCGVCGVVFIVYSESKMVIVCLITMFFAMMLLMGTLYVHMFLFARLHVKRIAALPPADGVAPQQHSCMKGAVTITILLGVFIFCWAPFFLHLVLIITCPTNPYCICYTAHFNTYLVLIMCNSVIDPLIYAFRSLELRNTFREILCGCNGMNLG
Procedure: as §4, §2, §3

[5] = target: T4, hMC4R (Homo sapiens, UniProt P32245); test: as above; format: cell-based; details: hM4CR; 50% maximal intracellular cAMP accumulation, N=4
T4 construct: expressed in transfected cells; host or cells: HEK293
T4 sequence (P32245 whole entry): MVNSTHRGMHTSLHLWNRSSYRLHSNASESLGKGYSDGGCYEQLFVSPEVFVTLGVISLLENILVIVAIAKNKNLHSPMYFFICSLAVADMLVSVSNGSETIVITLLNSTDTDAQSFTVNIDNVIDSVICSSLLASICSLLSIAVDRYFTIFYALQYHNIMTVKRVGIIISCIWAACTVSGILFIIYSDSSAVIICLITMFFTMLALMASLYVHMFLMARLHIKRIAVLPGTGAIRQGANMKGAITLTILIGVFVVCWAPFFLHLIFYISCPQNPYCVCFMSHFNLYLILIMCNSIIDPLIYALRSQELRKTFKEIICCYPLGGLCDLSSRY

[6] = target: T4, hMC4R; test: as above; format: cell-based; details: HEK293, 0.05 h; hM4CR; percentage of cAMP produced at 10 μM in relation to MT-II; read-out: Act%
Procedure: as §4, with “The” for “HEK293 cells transfected with human melanocortin receptors were grown to confluence in MEM medium (GIBCO) containing 10% fetal bovine serum, 100 units/mL penicillin and streptomycin, and 1 mM sodium pyruvate. The”, “reader. IC50 and EC50 values represent the mean of duplicate experiments performed in triplicate. […] NA indicates 0% cAMP accumulation observed at 10 μM. The peptides were tested over a range of concentrations from 10^-10 to 10^-5 M.” for “reader.”

[7] = target: T2, hMC1R; test: Competitive receptor binding assay, whole HEK293 cells, 125I-NDP-α-MSH; details: 40 min; hM1CR; percentage of NDP-α-MSH displacement at 10 μM; read-out: BE %
Procedure: [The procedure below names another target; the source lists this target under the same test.] (§5) Competition binding experiments were performed on whole cells. The transfected HEK293 cell line with hMC4Rs were seeded on 96 well plates, 48 hours before the assay, 100,000 cells/well. For the assay, the medium was removed and cells were washed twice with a freshly prepared binding buffer containing 100% minimum essential medium with Earle's salt (MEM, GIBCO), 25 mM HEPES (pH 7.4), 0.2% bovine serum albumin, 1 mM 1,10-phenanthroline, 0.5 mg/L leupeptin, and 200 mg/L bacitracin. […] The medium was subsequently removed and each well was washed twice with the assay buffer. The cells are lysed by the addition of 250 μL of 0.1 NaOH and 250 μL of 1% Triton X-100. The lysed cell was transferred to the 12×75 mm glass tubes and the radioactivity was measured by Wallac 1470 WIZARD Gamma Counter. Data were analyzed using Graphpad Prism 6.0 (Graphpad Software, San Diego, CA).
as §2, §3

[8] = target: T3, hMC3R; test: as above; details: 40 min; hM3CR; percentage of NDP-α-MSH displacement at 10 μM; read-out: BE %
Procedure: [The procedure below names another target; the source lists this target under the same test.] as §5, §2, §3

[9] = target: T4, hMC4R; test: as above; details: hM4CR; for inhibition at 10 µM: 40 min, percentage of [125I]NDP-α-MSH displacement at 10 μM, read-out: BE%
Procedure: as §1
as §2, with “CA). […]” for “CA).”

| inhibition at 10 µM [1] [%] | Emax at 10 µM [2] [%] | EC50 ([2]; cAMP accumulation, N=4) [µM] | Emax at 10 µM [3] [%] | Emax at 10 µM [4] [%] | EC50 ([4]; cAMP accumulation, N=4) [µM] | EC50 [5] [µM] | Emax at 10 µM [6] [%] | inhibition at 10 µM [7] [%] | inhibition at 10 µM [8] [%] | inhibition at 10 µM [9] [%] | IC50 ([9]; concentration of peptide at 50% specific binding, N=4) [µM] | SMILES |
| --- | --- | --- | --- | --- | --- | --- | --- | --- | --- | --- | --- | --- |
| 0 | 62 | > 1 | 100 | 59 | > 1 | > 1 | 84 | 100 | 100 | 23 | > 1 | CC(=O)N[C@@H](CCCNC(=N)N)C(=O)N[C@H]1CC(=O)NCCCC[C@@H](C(N)=O)NC(=O)[C@H](Cc2c[nH]c3ccccc23)NC(=O)C[C@H](CCCNC(=N)N)NC(=O)[C@@H](Cc2ccc(F)cc2)NC(=O)[C@@H]2CCCCN2C1=O [compound 5, Ac-Arg-cyclo[Asp-Pip-D-Phe(4-F)-βArg-Trp-Lys]-NH2] |
| 66 | 95 |  | 88 | 88 |  | > 1 | 63 | 100 | 60 | 0 |  | CC(=O)N[C@@H](CCCNC(=N)N)C(=O)N[C@H]1CC(=O)NCCCC[C@@H](C(N)=O)NC(=O)C[C@H](Cc2c[nH]c3ccccc23)NC(=O)[C@H](CCCNC(=N)N)NC(=O)[C@@H](Cc2ccccc2)NC(=O)[C@@H]2CCCCN2C1=O [compound 1, Ac-Arg-cyclo[Asp-Pip-D-Phe-Arg-BTrp-Lys]-NH2] |
